Test results as given in patent publication US20230025327A1, “CONJUGATES OF TUBULYSIN DERIVATIVES AND CELL BINDING MOLECULES AND METHODS OF MAKING” (Hangzhou DAC Biotech Co., Ltd., priority 2019, published 2023).

Tested on: NCI-N87, a human gastric carcinoma cell line
Details: read-out: IC50 of NCI-N87 cells, 120 hours incubation, MTT
Description: The inhibition % was calculated according to the following equation: inhibition %=[1-(assay-blank)/(control-blank)]×100.

Substance: T-DM1
- IC50: 0.32 nM
